Test results as given in patent publication US8501233B2, “Compositions and methods for treating cancer” (Wake Forest University, priority 2007, dated 2013).

Assays:
RKO cells [1] = test: Cell death of RKO cells with Mitomycin C compositions, MTS assay (Example 7); type: cell-based, human; conditions: MMC 40 μM, including cells heated to 42° C.
Experimental: (§1) Three (3) 48 well plates containing 10,000-20,000 RKO cells/well (human colon carcinoma) were prepared for a series of experiments measuring cell death as a function of exposure to various compositions, including compositions according to some embodiments of the present invention.
(§2) RKO colorectal cancer cell lines were purchased from American Type Culture Collections (ATCC) and cultured in McCoys's media supplemented with 2.5 μg/ml of amphotericin, 1% L-glutamine, 1% penicillin/streptomycin, and 10% fetal bovine serum. Cells were seeded in wells of the appropriate trays at a density of 10,000-20,000 cells per well.
(§3) MWNTs were grown by chemical vapor deposition (CVD) using xylene as the carbon precursor and ferrocene as a catalyst at concentrations of 60 mg or 400 mg. Hydrogen and argon gases were used to flow the xylene through a preheater at 170° C. and a furnace oven at 700° C. An injection rate of 5 ml/hour for a one hour run yielded about 200 mg of carbon nanotubes.
(§4) 50 mg of the MWNTs were cut and cleaned by sonication in a mixture of 90 ml of concentrated sulfuric acid and 30 ml of concentrated nitric acid for 24 hours. The length of the nanotubes was about 2 μm as determined by transmission electron microscopy (TEM). MWNT suspensions were prepared by adding 1 mg of MWNT per 1 ml of aqueous solution comprising 0.1% by weight Pluronic 127® surfactant. […]

RKO cells [2] = test: Cell death / viability of RKO cells, MTS assay (Example 5); type: cell-based, human; conditions: oxaliplatin 300 μM, including cells heated to 42° C., MTS 48 hours after treatment
Experimental: as §1, with “cells/well (human colon carcinoma) and three (3) 48 well plates containing 10,000-20,000 HCT 116 cell/well” for “cells/well”
as §2, with “RKO and HCT 116” for “RKO”, “well. […]” for “well.”
50 mg of the MWNTs were cut and cleaned by sonication in a mixture of 90 ml of concentrated sulfuric acid and 30 ml of concentrated nitric acid for 24 hours. The length of the nanotubes was about 2 μm as determined by transmission electron microscopy (TEM). […]
Following incubation, the media in the wells of each of the plates was replaced with media containing MTS assay reagents from Promega's CellTiter 96® AQueous assay kit. Cell viability was quantified over a three hour period according to the manufacturers instructions.

RKO cells [3] = test: Cell death of RKO cells after exposure to compositions, calorimetric assay (Example 4); type: cell-based, human; conditions: oxaliplatin 300 μM, heated to 42° C. for two hours
Experimental: Three (3) 48 well plates containing 20,000 RKO cells/well (human colon carcinoma) were prepared for a series of experiments measuring cell death as a function of exposure to various compositions, including compositions according to some embodiments of the present invention.
as §3
50 mg of the MWNTs were cut and cleaned by sonication in a mixture of 90 ml of concentrated sulfuric acid and 30 ml of concentrated nitric acid for 24 hours. The length of the nanotubes was about 2 μm as determined by transmission electron microscopy (TEM). MWNT suspensions were prepared by adding 1 mg of MWNT per 1 ml of aqueous solution having 0.1% by weight Pluronic 127® surfactant. The suspensions were sonicated to enhance MWNT dispersion. MWNT suspensions were diluted with water to a concentration of 100 μg MWNT/ml.
A solution comprising oxaliplatin at a concentration of 300 μM was obtained (Ox). […]
Cell death resulting from the addition of the various compositions at the three temperatures was monitored by calorimetric assay. […]

[4] = test system: HeLa cervical cancer cells; test: In vivo evaluation of localized hyperthermia, intraperitoneal cancer nodules in athymic mice (Example 11); conditions: Group 3 irradiated 10 seconds (42° C.), Group 2 heated 42° C. two hours, two weeks after treatment
Experimental: 15 athymic mice are divided equally into three treatment groups as provided in Table 13, with Group 1 receiving a treatment composition of 100 μg/ml of MWNTs, Group 2 receiving a treatment composition comprising 300 μM oxaliplatin, and Group 3 receiving a treatment composition comprising 300 μM oxaliplatin and 100 μg MWNT per ml.
Each animal of Groups 1-3 receives intraperitoneal injections of 1E6 HeLa cervical cancer cells which express folic acid receptors. […] Two weeks after the intraperitoneal injections of the cancerous cells, the intraperitoneal cavity of each animal in Groups 1-3 is exposed, and the cancer nodules photographed allowing size and number of the nodules to be recorded.
After examination and quantification of cancer nodules, two 5 ml solutions of FA functionalized MWNTs (100 μg/ml) are provided to the intraperitoneal cavity of each animal in Groups 1 and 3. […]
The animals of Groups 1-3 are allowed to recover for two weeks. […] The size and number of cancerous nodules at the time of sacrifice is compared to the initially recorded observations of size and number of cancerous nodules for each animal. Moreover, for each animal in the study, a total of about 1 to 10 mg of tumor nodule mass is retained to determine platinum content as determined by elemental analysis.

HCT 116 cells = test: Cell death of HCT 116 cells, single 8 second lasing (Example 8); type: cell-based, human; conditions: oxaliplatin 300 μM, including cells heated to 42° C.
Experimental: Two (2) 48 well plates containing 10,000-20,000 HCT 116 cells/well (human colon carcinoma) were prepared for a series of experiments measuring cell death as a function of exposure to various compositions, including compositions according to some embodiments of the present invention.
as §2, with “HCT 116” for “RKO”
as §3, §4

SMILES | cell death (RKO cells [1]) | cell death (RKO cells [2]) | cell death (RKO cells [3]) | reduction in the sizes and numbers of cancerous nodules (Groups 2 and 3 compared) [4] | cell death (HCT 116 cells)
CO[C@@]12[C@H](COC(N)=O)C3=C(C(=O)C(C)=C(N)C3=O)N1C[C@@H]1N[C@@H]12 [MMC, Mitomycin C] | significant death |  |  |  | 
O=C1[O][Pt]2([NH][C@@H]3CCCC[C@H]3[NH]2)[O]C1=O [oxaliplatin] |  | significant death | significant | substantially similar reduction | significant death
